Experimental data taken from paper PMC8760490, “Discovery of novel furanylbenzamide inhibitors that target oncogenic tyrosine phosphatase SHP2 in leukemia cells” (The Journal of Biological Chemistry, 2021).

Experiments:
[1] = biological target: T1, full-length SHP2 WT (SHP2-WT) (Homo sapiens, UniProt Q06124); assay: DiFMUP fluorescence phosphatase inhibition assay, SHP2-WT activated with IRS-1 peptide; type: biochemical; settings: DiFMUP at Km (60 μM), pH 6.0
T1 construct: Recombinant human full-length SHP2 (1–594) WT and E76K mutants; made in house
Text: (§1) To test the synthesized compounds for their potential to inhibit SHP2 activity, a fluorescence intensity-based assay using 6,8-difluoro-4-methylumbelliferyl phosphate (DiFMUP) as the substrate was adapted for three recombinant SHP2 constructs: (1) the SHP2 catalytic domain (SHP2cat; residues 248–527), (2) the full-length SHP2-E76K oncogenic mutant, and (3) the full-length SHP2 WT (SHP2-WT). The recombinant SHP2 proteins were expressed and purified as described previously ([36]). A dually phosphorylated peptide derived from the insulin receptor substrate 1 (IRS-1) served as a surrogate binding protein and was used to activate SHP2-WT ([30], [36]). […] Michaelis–Menten experiments to determine the DiFMUP Michaelis–Menten constant (Km) for each SHP2 construct were performed as described previously ([36]) and yielded the following values: SHP2-WT, Km = 60 μM; SHP2-E76K, Km = 20 μM; and SHP2cat, Km = 20 μM. Relative maximum rates (Vmax) of the DiFMUP reactions expressed as relative fluorescence units per minute (RFU/min) were as follows: SHP2-WT, Vmax = 871 RFU/min; SHP2-E76K, Vmax = 2730 RFU/min; and SHP2cat, Vmax = 2912 RFU/min. IC50 values for each compound were determined from initial rates in 10-point dose–response assays using DiFMUP at a concentration corresponding to its Km value for the respective SHP2 construct. […] Replacements for the benzothiophenone were explored using analog #10.
(§2) Recombinant human full-length SHP2 (1–594) WT and E76K mutants, as well as the SHP2cat (248–527), were expressed and purified as described before ([36], [41]). Recombinant human PTP1B (1–300) and the codon-optimized STEP (280–566) catalytic domains were cloned into PET-15b and expressed as N-His-tagged fusion proteins. For expression, transformed BL21(DE3) cells were grown and induced similar as described for SHP2. Collected cells were resuspended in lysis buffer (25 mM Tris, pH 7.5, 300 mM NaCl, 50 mM imidazole, and 10% glycerol) with 100 mg/l RNaseA and were lysed with two passages using a microfluidizer. The lysate was clarified by centrifugation at 15,000g for 50 min and applied to nickel–nitrilotriacetic acid resin. The column resin was washed, and the PTP1B or STEP protein was eluted in lysis buffer at 300 mM imidazole. The PTP1B or STEP protein was further purified by S75 size-exclusion chromatography in 50 mM Tris, pH 7.5, 50 mM NaCl. The eluted peak fractions were supplemented with tris(2-carboxyethyl)phosphine to 10 mM, concentrated by ultrafiltration, and stored at −80 °C. The purified yield of PTP1B was 33 mg/l cell culture; the yield of STEP was 16 mg/l cell culture.
(§3) SHP2 inhibitors were tested at RT in a 384-well plate format standard phosphatase fluorescence intensity assay using DiFMUP (Invitrogen/Thermo Fisher Scientific) as a substrate and a total reaction volume of 25 μl. SHP2 inhibitors or vehicle (DMSO) were spotted in triplicate into a black Greiner FLUOTRAC 200 384-well microplate (catalog no.: 781076; Greiner) for a 10-point dose–response assay using an Echo 555 Liquid Handler (Labcyte, Inc). PTP working solutions were prepared at a 0.625 nM concentration (for a final concentration of 0.5 nM) in buffer containing 50 mM Bis–Tris, pH 6.0, 50 mM NaCl, 5 mM DTT, and 0.01% Tween-20. Prior to the assay, a dually phosphorylated IRS-1 peptide (625 nM [500 nM final] ([30])) was added to full-length WT SHP2 working solutions and incubated for 20 min. DiFMUP working solutions at 5× final concentration were prepared in 50 mM Bis–Tris, pH 6.0, 50 mM NaCl, and 0.01% Tween-20. About 20 μl of PTP working solution was dispensed into the microplate and incubated with inhibitor for 20 min at RT. […] The reaction was initiated by addition of 5 μl DiFMUP working solutions. Fluorescence intensity was measured in kinetic mode (every minute for 7 or 10 min) using a Tecan Spark Multimode Microplate Reader (Tecan) with an excitation wavelength of 360 nm and an emission wavelength of 460 nm. […]

[2] = system: Kasumi-1 acute myeloid leukemia (AML) cells; assay: Cell viability (CellTiter-Glo), Kasumi-1; type: cell-based; settings: various concentrations, 3 days
Description: (§4) Inhibition of SHP2 has been reported to inhibit the growth of cancer cells including Kasumi-1 acute myeloid leukemia (AML) and KYSE-520 esophageal cancer cells ([30]). […] Thus, we treated two TNBC cell lines, BT-549 and MDA-MB-468, with SBI-4668 or the SHP2 allosteric inhibitor SHP099 at various concentrations and determined cell viability after 72 h, compared with the vehicle control (Fig. 4C). […] Next, we performed an 11-day colony formation assay with TNBC cells treated with SBI-4668 or SHP099 at 5, 10, or 20 μM (Fig. 4D).
(§5) Viability of AML and esophageal carcinoma cells was assessed using the ATP-depletion assay CellTiter-Glo (Promega). Cells were harvested at 1 × 10^6/ml to 2 × 10^6 cells/ml with cell numbers determined by trypan blue using the Countess Cell counter (Thermo Scientific) and resuspended in culture media. About 3000 cells (in 20 μl) were seeded in a 384-well format white and clear-bottom microplate (catalog no.: 781098; Greiner) spotted with test compound or vehicle control (DMSO) using an Echo 555 Liquid Handler. Cells were incubated for 3 days, before 10 μl of CellTiter-Glo reagent mix was added to each well and incubated for 10 min at RT. Luminescence was read on a Tecan Spark Multimode Microplate Reader, and data were analyzed using GraphPad Prism software.

[3] = system: KYSE-520 esophageal cancer cells; assay: Cell viability (CellTiter-Glo), KYSE-520; type: cell-based; settings: various concentrations, 3 days
Description: as §4, §5

[4] = biological target: T2, full-length SHP2-E76K oncogenic mutant (Homo sapiens, UniProt Q06124, E76K); assay: DiFMUP fluorescence phosphatase inhibition assay, SHP2-E76K; type: biochemical; settings: DiFMUP at Km (20 μM), 10-point dose–response, pH 6.0
T2 construct: Recombinant human full-length SHP2 (1–594) WT and E76K mutants; made in house
T2 sequence (Q06124 1-593 E76K): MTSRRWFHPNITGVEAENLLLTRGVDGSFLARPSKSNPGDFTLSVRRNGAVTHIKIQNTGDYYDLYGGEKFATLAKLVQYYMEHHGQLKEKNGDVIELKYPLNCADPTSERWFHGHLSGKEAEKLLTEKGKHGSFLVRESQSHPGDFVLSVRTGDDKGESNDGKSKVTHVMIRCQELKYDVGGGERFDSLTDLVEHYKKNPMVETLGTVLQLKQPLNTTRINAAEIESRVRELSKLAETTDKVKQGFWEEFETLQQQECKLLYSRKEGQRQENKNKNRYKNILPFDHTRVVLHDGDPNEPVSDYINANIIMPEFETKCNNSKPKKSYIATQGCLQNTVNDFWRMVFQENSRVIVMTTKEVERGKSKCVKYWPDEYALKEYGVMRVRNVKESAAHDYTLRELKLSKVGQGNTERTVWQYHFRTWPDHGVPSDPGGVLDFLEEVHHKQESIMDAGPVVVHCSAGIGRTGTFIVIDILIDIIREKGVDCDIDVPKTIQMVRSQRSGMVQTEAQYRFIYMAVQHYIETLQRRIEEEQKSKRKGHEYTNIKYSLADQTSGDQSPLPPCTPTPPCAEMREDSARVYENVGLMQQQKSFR
Text: as §1, §2, §3

[5] = biological target: T3, SHP2 catalytic domain (SHP2cat; residues 248–527) (Homo sapiens, UniProt Q06124); assay: DiFMUP fluorescence phosphatase inhibition assay, SHP2cat; type: biochemical; settings: DiFMUP at Km (20 μM), pH 6.0; read-out: SHP2cat; IC50
T3 construct: the SHP2 catalytic domain (SHP2cat; residues 248–527); made in house
T3 sequence (Q06124 248-527): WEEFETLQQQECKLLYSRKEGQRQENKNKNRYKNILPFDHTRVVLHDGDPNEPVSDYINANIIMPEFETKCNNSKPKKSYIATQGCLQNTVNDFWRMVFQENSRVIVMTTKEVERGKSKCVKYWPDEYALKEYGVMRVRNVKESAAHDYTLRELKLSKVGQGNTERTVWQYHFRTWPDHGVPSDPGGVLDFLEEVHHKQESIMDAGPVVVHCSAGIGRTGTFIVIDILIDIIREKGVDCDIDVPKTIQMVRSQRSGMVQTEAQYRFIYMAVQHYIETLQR
Text: as §1, §2, §3

MOLM-13 AML cells = assay: Cell viability (CellTiter-Glo), MOLM-13; type: cell-based; settings: 72 h, 30 μM to 58 nM, regular MOLM-13 expressing WT SHP2 (Fig. 4G); read-out: MOLM-13 cell viability IC50 (parallel to SHP2 KO)
Description: as §4
Finally, we evaluated the selectivity of our top two compounds, SBI-2130 and SBI-4668, on MOLM-13 AML cells in which SHP2 was depleted using CRISPR–Cas9 KO. High-efficiency Cas9-editing MOLM-13 cells were generated by transducing MOLM-13 cells with a Cas9 lentiviral construct. Stable clones were tested for editing efficiency by performing tracking of indels by decomposition analysis ([45]), and these MOLM-13-Cas9 cells were transduced with a lentiviral construct containing an AAVS1 single-guide RNA (sgRNA) and an mCherry reporter for bulk sorting of cells with successful AAVS1 editing. SHP2 KO was achieved by transducing MOLM-13-Cas9-mCherry cells with a lentivirus, containing SHP2 dual sgRNAs, resulting in ∼80% reduction of SHP2 protein levels (Fig. 4G). SBI-2130, SBI-4668, and the SHP2 allosteric inhibitor, SHP099, were tested in parallel on regular MOLM-13 cells (expressing WT SHP2) and MOLM-13-Cas9-mCherry cells with SHP2 KO. Cells were treated with inhibitors at various concentrations (ranging from 30 μM to 58 nM) or vehicle control (DMSO) for 72 h, before cell viability was assessed.
as §5, with “Cells were incubated for 3 days, before 10 μl of CellTiter-Glo reagent mix was added to each well and incubated for 10 min at RT.” left out
For SHP2 KO, dual sgRNAs targeting SHP2 were cloned in the pLentiGuide puro vector (Addgene plasmid no. 52963 from Dr Feng Zhang) using a published protocol ([50]). […] SHP2 KO was evaluated by immunoblotting. […] For SHP2 KO, MOLM-13-Cas9-mCherry cells were seeded in nontreated 6-well plates (2 × 10^6 cells/well in 2.5 ml), with cell numbers determined by trypan blue using the Countess Cell Counter (Thermo Scientific). […]

BT-549 TNBC cells [6] = assay: TNBC cell viability (CellTiter-Glo), BT-549; type: cell-based; settings: various concentrations
Description: as §4
(§6) Triple-negative breast cancer cell viability was assessed using the ATP-depletion assay CellTiter-Glo. Briefly, 2500 cells in 25 μl media (RPMI + 10% FBS + 1× penicillin–streptomycin [Omega Scientific]) were seeded per well of a 384-well tissue culture–treated plate (Greiner). About 25 nl of 1000× test compound were added using a Labcyte Echo acoustic dispenser, and the cells were incubated for 5 days before addition of 10 μl of CellTiter-Glo reagent as described by the manufacturer. Luminescence was detected on a BioTek Synergy 2 microplate reader, and the values normalized to those of vehicle (DMSO)-treated controls before being plotted using GraphPad Prism.

MDA-MB-468 TNBC cells [7] = assay: TNBC cell viability (CellTiter-Glo), MDA-MB-468; type: cell-based; settings: various concentrations
Description: as §4, §6

BT-549 TNBC cells [8] = assay: 11-day colony formation assay, BT-549; type: cell-based; settings: 5, 10 or 20 μM, 11 days
Description: as §4
(§7) MDA-MB-468 and […] triple-negative breast cancer cells were maintained in Dulbecco's modified Eagle's medium + 10% FBS supplemented with 1× penicillin–streptomycin/L-glutamine (Omega Scientific). About 1500 cells (in 300 μl) were seeded per well of a standard 24-well tissue culture plate (Falcon) and allowed to adhere for 24 h, before the addition of compound(s) as described. After a further 96 h, media were replaced with fresh media containing the same test compounds and concentrations. After 11 days, media were removed, and cells stained with 0.5% crystal violet (in 20% methanol; Sigma) for 20 min with agitation at 80 rpm. Stain was removed, and plates with stained cells were washed by being submerged in excess deionized water and allowed to air dry overnight before imaging.

MDA-MB-468 TNBC cells [9] = assay: 11-day colony formation assay, MDA-MB-468; type: cell-based; settings: 5, 10 or 20 μM, 11 days
Description: as §4, §7

Row | Compound | IC50 [1] | effect on Kasumi-1 cell growth [2] | effect on KYSE-520 cell growth [3] | IC50 [4] | IC50 [5] | IC50 (MOLM-13 AML cells) | effect on BT-549 cell viability (BT-549 TNBC cells [6]) | effect on MDA-MB-468 cell viability (MDA-MB-468 TNBC cells [7]) | colony formation, BT-549 (BT-549 TNBC cells [8]) | colony formation, MDA-MB-468 (MDA-MB-468 TNBC cells [9])
1 | CC(C)NC(=O)c1cccc(-c2ccc(/C=C3\Sc4ccccc4C3=O)o2)c1 [SBI-9639, (Z)-N-isopropyl-3-(5-((3-oxobenzo[b]thiophen-2(3H)-ylidene)methyl)furan-2-yl)benzamide] | > 100 µM | no notable effects | no notable effects | – | – | – | – | – | – | –
2 | O=C(NNc1ccccc1)c1cc(-c2ccc(/C=C3\Sc4ccccc4C3=O)o2)ccc1O [SBI-2128, (Z)-2-Hydroxy-5-(5-((3-oxobenzo[b]thiophen-2(3H)-ylidene)methyl)furan-2-yl)-N′-phenylbenzohydrazide] | 14 µM | – | – | 11 µM | 3.1 µM | – | – | – | – | –
3 | CC1(N)CCN(c2cnc(-c3cccc(Cl)c3Cl)c(N)n2)CC1 [SHP099, reference compound] | – | – | – | – | – | 9.4 µM | very minor effect | very minor effect | very weak effect | very weak effect
